Like-named read-outs stand apart in the source and are kept apart here.
Assay type: in vivo, Japanese patients

COc1cc2ncnc(Nc3ccc(F)c(Cl)c3)c2cc1NC(=O)/C=C/CN1CCCCC1 [dacomitinib, Dacomitinib]
Nausea, number of patients with treatment-related AE (15 mg QD (n = 3), G3): 0
Palmar–plantar erythrodysesthesia, number of patients with treatment-related AE (15 mg QD (n = 3), G3): 0
Paronychia, number of patients with treatment-related AE (15 mg QD (n = 3), G3): 0
Proteinuria, number of patients with treatment-related AE (15 mg QD (n = 3), G3): 0
Rash, number of patients with treatment-related AE (15 mg QD (n = 3), G3): 0
Skin fissures, number of patients with treatment-related AE (15 mg QD (n = 3), G3): 0
Stomatitis, number of patients with treatment-related AE (15 mg QD (n = 3), G3): 0
Weight decreased, number of patients with treatment-related AE (15 mg QD (n = 3), G3): 0
Alanine aminotransferase increased, number of patients with treatment-related AE (30 mg QD (n = 3), All): 0
Aspartate aminotransferase increased, number of patients with treatment-related AE (30 mg QD (n = 3), All): 0
Blood bilirubin increased, number of patients with treatment-related AE (30 mg QD (n = 3), All): 0
Cheilitis, number of patients with treatment-related AE (30 mg QD (n = 3), All): 1
Conjunctivitis, number of patients with treatment-related AE (30 mg QD (n = 3), All): 1
Decreased appetite, number of patients with treatment-related AE (30 mg QD (n = 3), All): 1
Diarrhea, number of patients with treatment-related AE (30 mg QD (n = 3), All): 3
Dry skin, number of patients with treatment-related AE (30 mg QD (n = 3), All): 1
ECG QT prolonged, number of patients with treatment-related AE (30 mg QD (n = 3), All): 0
Edema, number of patients with treatment-related AE (30 mg QD (n = 3), All): 0
Fatigue, number of patients with treatment-related AE (30 mg QD (n = 3), All): 1
Hematuria, number of patients with treatment-related AE (30 mg QD (n = 3), All): 0
Hypertrichosis, number of patients with treatment-related AE (30 mg QD (n = 3), All): 0
Leukopenia, number of patients with treatment-related AE (30 mg QD (n = 3), All): 0
Nausea, number of patients with treatment-related AE (30 mg QD (n = 3), All): 1
Palmar–plantar erythrodysesthesia, number of patients with treatment-related AE (30 mg QD (n = 3), All): 2
Paronychia, number of patients with treatment-related AE (30 mg QD (n = 3), All): 2
Proteinuria, number of patients with treatment-related AE (30 mg QD (n = 3), All): 0
Rash, number of patients with treatment-related AE (30 mg QD (n = 3), All): 3
Skin fissures, number of patients with treatment-related AE (30 mg QD (n = 3), All): 0
Stomatitis, number of patients with treatment-related AE (30 mg QD (n = 3), All): 2
Weight decreased, number of patients with treatment-related AE (30 mg QD (n = 3), All): 1
Alanine aminotransferase increased, number of patients with treatment-related AE (30 mg QD (n = 3), G1): 0
Aspartate aminotransferase increased, number of patients with treatment-related AE (30 mg QD (n = 3), G1): 0
Blood bilirubin increased, number of patients with treatment-related AE (30 mg QD (n = 3), G1): 0
Cheilitis, number of patients with treatment-related AE (30 mg QD (n = 3), G1): 1
Conjunctivitis, number of patients with treatment-related AE (30 mg QD (n = 3), G1): 1
Decreased appetite, number of patients with treatment-related AE (30 mg QD (n = 3), G1): 0
Diarrhea, number of patients with treatment-related AE (30 mg QD (n = 3), G1): 3
Dry skin, number of patients with treatment-related AE (30 mg QD (n = 3), G1): 0
ECG QT prolonged, number of patients with treatment-related AE (30 mg QD (n = 3), G1): 0
Edema, number of patients with treatment-related AE (30 mg QD (n = 3), G1): 0
Fatigue, number of patients with treatment-related AE (30 mg QD (n = 3), G1): 0
Hematuria, number of patients with treatment-related AE (30 mg QD (n = 3), G1): 0
Hypertrichosis, number of patients with treatment-related AE (30 mg QD (n = 3), G1): 0
Leukopenia, number of patients with treatment-related AE (30 mg QD (n = 3), G1): 0
Nausea, number of patients with treatment-related AE (30 mg QD (n = 3), G1): 1
Palmar–plantar erythrodysesthesia, number of patients with treatment-related AE (30 mg QD (n = 3), G1): 0
Paronychia, number of patients with treatment-related AE (30 mg QD (n = 3), G1): 0
Proteinuria, number of patients with treatment-related AE (30 mg QD (n = 3), G1): 0
Rash, number of patients with treatment-related AE (30 mg QD (n = 3), G1): 1
Skin fissures, number of patients with treatment-related AE (30 mg QD (n = 3), G1): 0
Stomatitis, number of patients with treatment-related AE (30 mg QD (n = 3), G1): 1
Weight decreased, number of patients with treatment-related AE (30 mg QD (n = 3), G1): 0
Alanine aminotransferase increased, number of patients with treatment-related AE (30 mg QD (n = 3), G2): 0
Aspartate aminotransferase increased, number of patients with treatment-related AE (30 mg QD (n = 3), G2): 0
Blood bilirubin increased, number of patients with treatment-related AE (30 mg QD (n = 3), G2): 0
Cheilitis, number of patients with treatment-related AE (30 mg QD (n = 3), G2): 0
Conjunctivitis, number of patients with treatment-related AE (30 mg QD (n = 3), G2): 0
Decreased appetite, number of patients with treatment-related AE (30 mg QD (n = 3), G2): 1
Diarrhea, number of patients with treatment-related AE (30 mg QD (n = 3), G2): 0
Dry skin, number of patients with treatment-related AE (30 mg QD (n = 3), G2): 1
ECG QT prolonged, number of patients with treatment-related AE (30 mg QD (n = 3), G2): 0
Edema, number of patients with treatment-related AE (30 mg QD (n = 3), G2): 0
Fatigue, number of patients with treatment-related AE (30 mg QD (n = 3), G2): 1
Hematuria, number of patients with treatment-related AE (30 mg QD (n = 3), G2): 0
Hypertrichosis, number of patients with treatment-related AE (30 mg QD (n = 3), G2): 0
Leukopenia, number of patients with treatment-related AE (30 mg QD (n = 3), G2): 0
Nausea, number of patients with treatment-related AE (30 mg QD (n = 3), G2): 0
Palmar–plantar erythrodysesthesia, number of patients with treatment-related AE (30 mg QD (n = 3), G2): 2
Paronychia, number of patients with treatment-related AE (30 mg QD (n = 3), G2): 2
Proteinuria, number of patients with treatment-related AE (30 mg QD (n = 3), G2): 0
Rash, number of patients with treatment-related AE (30 mg QD (n = 3), G2): 2
Skin fissures, number of patients with treatment-related AE (30 mg QD (n = 3), G2): 0
Stomatitis, number of patients with treatment-related AE (30 mg QD (n = 3), G2): 1
Weight decreased, number of patients with treatment-related AE (30 mg QD (n = 3), G2): 1
Alanine aminotransferase increased, number of patients with treatment-related AE (30 mg QD (n = 3), G3): 0
Aspartate aminotransferase increased, number of patients with treatment-related AE (30 mg QD (n = 3), G3): 0
Blood bilirubin increased, number of patients with treatment-related AE (30 mg QD (n = 3), G3): 0
Cheilitis, number of patients with treatment-related AE (30 mg QD (n = 3), G3): 0
Conjunctivitis, number of patients with treatment-related AE (30 mg QD (n = 3), G3): 0
Decreased appetite, number of patients with treatment-related AE (30 mg QD (n = 3), G3): 0
Diarrhea, number of patients with treatment-related AE (30 mg QD (n = 3), G3): 0
